Reference: ChEMBL document CHEMBL2331398, “Synthesis and growth inhibition activity of fluorinated derivatives of tamoxifen” (2013)

Legend:
Type in all cases: functional
HT-29 = test: Growth inhibition of human HT-29 cells
M21 = test: Growth inhibition of human M21 cells
MDA-MB-231 = test: Growth inhibition of estrogen-independent human MDA-MB-231 cells
MCF7 = test: Growth inhibition of estrogen-dependent human MCF7 cells

Row | Structure (SMILES) | GI50 (HT-29) [µM] | GI50 (MDA-MB-231) [µM] | GI50 (MCF7) [µM] | GI50 (M21) [µM]
1 | CN(C)CCOc1ccc(/C(=C(/F)c2ccccc2)c2ccc(O)cc2)cc1 | 8.7 | 7.3 | 3.6 | 4.4
2 | Oc1ccc(/C(=C(\F)c2ccccc2)c2ccc(OCCN3CCCC3)cc2)cc1 | 8.9 | 10.6 | 5.6 | 6.8
3 | O=Cc1ccc(/C(=C(\F)c2ccccc2)c2ccc(OCCN3CCCCC3)cc2)cc1 | 5.9 | 10.6 | 5.6 | 4.2
4 | CN(C)CCOc1ccc(/C(=C(/F)c2ccccc2)c2ccccc2)cc1 | 10.5 | 22.2 | 10.4 | 13.5
5 | CC/C(=C(\c1ccccc1)c1ccc(OCCN(C)C)cc1)c1ccccc1 [TAMOXIFEN] | 9.5 | 18.8 |  | 11

More lines, in order of falling GI50 (HT-29), values ahead:

Row | GI50 (HT-29) [µM] | GI50 (MDA-MB-231) [µM] | GI50 (MCF7) [µM] | Structure (SMILES) | GI50 (M21) [µM]
6 | 59.8 | 105 | 71.7 | Oc1ccc(C(=C(F)c2cccc(C(F)(F)F)c2)c2ccccc2)cc1 | 89.6
7 | 40.3 | > 100 | 41.7 | F/C(=C(\c1ccccc1)c1ccc(OCCN2CCCC2)cc1)c1ccccc1 | 44
8 | 32.8 | 46.9 | 21.3 | Oc1ccc(C(=C(F)c2ccccc2)c2ccccc2)cc1 (mixture of isomers) | 53
9 | 8.9 | 25.8 | 8.4 | Oc1ccc(/C(=C(\F)c2ccccc2)c2ccc(OCCN3CCCCC3)cc2)cc1 | 15.9
10 | 8.7 | 14.4 | 6.5 | F/C(=C(\c1ccccc1)c1ccc(OCCN2CCCCC2)cc1)c1ccccc1 | 5.8
11 | 7.3 | 12.5 | 8.8 | F/C(=C(/c1ccccc1)c1ccc(OCCN2CCCCC2)cc1)c1ccccc1 | 5.6
12 | 6.9 | 12.6 | 7.4 | OCc1ccc(/C(=C(\F)c2ccccc2)c2ccc(OCCN3CCCCC3)cc2)cc1 | 5.9
